Results reported in patent publication US9078851B2, “Composition for preventing or treating a spinal cord injury” (UNIVERSITY-INDUSTRY COOPERATION GROUP OF KYUNG HEE, priority 2009, dated 2015).

Legend:
Assay type in all cases: in vivo, rat
[1] = test system: IL-10 expression in nerve cell; assay: Immunofluorescence staining of IL-10 in nerve cells and microglia/macrophages after spinal cord injury; settings: tail vein injection; one day after spinal cord injury
Description: (§1) For the present experiment, male white mice (Sprague-Dawley 240-250 g, 7 weeks, 10 mice) were under general anesthetics by an intraperitoneal injection of Ketamin (80 mg/kg, Yuhan Corporation) and Rompun (7.4 mg/kg, Bayer Korea Corporation). Laminectomy was performed at spine T9-10 level to expose a spinal cord keeping intact dura. And then, rat was put on Spinal cord dropping device (NYU); spine processes at T8 and T11 sites were fixed by using a clamp, respectively; then, a rod (diameter 2 mm, weight 10 g) was dropped from 25 mm height vertical to dorsal part of spinal cord followed by suturing injury site muscle and skin. The rat of Sham-operated control group was performed only laminectomy at same area without damaging spinal cord injury (marked by ‘sham” in figures; hereinafter, the same as above).
(§2) Substance P (marked by ‘SP’ in figures; hereinafter, the same as above) dissolved in saline of 5 nmol/kg concentration was injected through tail vein at immediately, 24 hours, and 48 hours after a spinal cord injury for experimental groups. At sham control group, same volume of saline (marked by ‘vehicle’ in figures; hereinafter, the same as above) without Substance P was injected at same time points. Operation were performed on an electric heating pad of 37° C., and then rat were transferred to cage after awake from the anesthetic. • (2) Preparation of Tissue […]

[2] = test system: activated microglia/macrophage; assay: Immunofluorescence staining of ED1 at spinal cord injury site; settings: 5 nmol/kg tail vein at immediately, 24 h, 48 h after spinal cord injury; 5 days after operation; vs control, rostal to caudal area
Description: as §1, §2

[3] = test system: myelin sheath of nerve cell; assay: Immunofluorescence staining of myelin base protein (MBP) after spinal cord injury
Description: as §1, §2

[4] = test system: apoptosis of nerve cells and oligodendrocytes; assay: TUNEL staining of apoptosis at spinal cord injury site; settings: tail vein injection
Description: as §1, §2

Substance: Substance P
- IL-10 expression in cells [1]: specifically expressed at a nerve cell
- activated microglia/macrophage expressing ED1 antigen [2]: significantly decreased
- inhibition of tissue lose ([3]; at 2 mm rostal and caudal from the center): at least 50%
- MBP-positive sheath ([3]; tail vein injection, after spinal cord injury): well preserved
- apoptosis of oligodendrocytes ([4]; five days after damaging): significantly decreased
- apoptosis of nerve cells ([4]; one day after damaging): decreased
